Reference: PMC6337391 (Molecules, 2019)

How the values were obtained:
[1] = Reducing activity with the stable radical DPPH
Method: The chalcones were studied for the antioxidant activity (reducing activity RA%) by the use of the stable free radical 2,2-diphenyl-1-picrylhydrazyl radical (DPPH) at concentrations 0.05 mM after 20 and 60 min (Table 2). In this procedure, the dominant chemical reaction involved is the reduction of the DPPH radical by single electron transfer from the antioxidant. […] For the sake of comparison, we measured the RA% values for the intermediate double ethers d which were included in the Table 2.
To a solution of DPPH (final concentration 0.05 mM) in absolute ethanol an equal volume of the compounds solution in DMSO (stock solution 10 mM) dissolved in ethanol was added. Absolute ethanol was used as a control. The concentrations of the solutions of the compounds were 0.05 and 0.1 mM. The absorbance was recorded at 517 nm at room temperature after 20 and 60 min [29] (Table 2).

soybean lipoxygenase = target: T1, soybean lipoxygenase (Glycine max, UniProt P08170); experiment: biochemical; assay type: biochemical; details: soybean LOX; for IC50: read-out: LOX IC50
T1 sequence (P08170 1-839): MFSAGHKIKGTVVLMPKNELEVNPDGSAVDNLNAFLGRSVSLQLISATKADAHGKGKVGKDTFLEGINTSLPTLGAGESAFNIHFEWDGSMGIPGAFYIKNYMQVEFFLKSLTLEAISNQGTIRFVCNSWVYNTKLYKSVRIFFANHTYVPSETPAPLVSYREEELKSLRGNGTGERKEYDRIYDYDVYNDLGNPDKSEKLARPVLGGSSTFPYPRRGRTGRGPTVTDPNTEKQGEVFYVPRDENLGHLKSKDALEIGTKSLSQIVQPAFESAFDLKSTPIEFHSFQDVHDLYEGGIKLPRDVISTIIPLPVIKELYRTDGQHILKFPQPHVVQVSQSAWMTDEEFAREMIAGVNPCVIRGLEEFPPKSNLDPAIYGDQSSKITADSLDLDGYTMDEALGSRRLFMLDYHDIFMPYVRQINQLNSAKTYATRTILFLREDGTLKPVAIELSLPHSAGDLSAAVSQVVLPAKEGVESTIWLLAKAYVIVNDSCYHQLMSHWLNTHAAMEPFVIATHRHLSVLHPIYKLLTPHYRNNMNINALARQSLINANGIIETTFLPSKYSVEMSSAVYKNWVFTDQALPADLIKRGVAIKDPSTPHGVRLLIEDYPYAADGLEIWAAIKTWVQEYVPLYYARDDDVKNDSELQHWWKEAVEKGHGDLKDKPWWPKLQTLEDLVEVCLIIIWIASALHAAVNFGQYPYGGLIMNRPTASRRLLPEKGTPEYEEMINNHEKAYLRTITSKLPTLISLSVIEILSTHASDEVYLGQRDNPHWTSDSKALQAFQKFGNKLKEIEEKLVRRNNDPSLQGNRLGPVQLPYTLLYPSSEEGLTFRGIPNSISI
Description: In our experiments we used soybean lipoxygenase. Designing agents to modulate activities of the variety of so closely homologous enzymes, such as different LOXs, require an intimate knowledge of their 3D structures, as well as information about metabolism of the potential xenobiotics. […] Due to lack of sufficiently-purified human enzymes most of the research has been done on soybean LOX [52, 53]. Although this enzyme is not identical to the mammalian one, it seems that there is a sufficient qualitative correlation between values for enzyme inhibition with the two enzymes.
In vitro study was evaluated as reported previously. The tested compounds as stock solutions were dissolved in DMSO. Ten microliters (10 μL) were incubated at room temperature with sodium linoleate ([…]) and 0.2 mL of enzyme solution (1/9 × 10^−4 w/v in saline) in buffer pH 9 (tris) at room temperature (final volume 1 mL). […] Several concentrations were used for the determination of IC50 values.

[2] = ABTS•+ decolorization assay
Method: The decolorization assay is used to evaluate the antioxidant activity. The ABTS^•+ cationic radical is derived from the direct oxidation of ABTS by potassium persulfate. No involvement of an intermediary radical is observed. The addition of electron-donating antioxidants reduce ABTS^•+.
Stock solutions of the tested compounds in DMSO (10 mM) were diluted. […] aliquots of each sample were added into the ABTS·^+ solution and the absorbance was recorded at room temperature. Trolox was used as a standard.

[3] = Lipophilicity as RM values by RP-TLC; assay type: physicochemical; set-up: key: RM = log[(1/Rf) − 1]; details: methanol/water 70/30, SD < 10%
Description: It is well-documented and discussed in the literature that lipophilicity is a very significant physicochemical property which may critically affect distribution, bioavailability, metabolic activity and elimination, all the useful characteristics for the kinetics of biologically active compounds. Thus, we attempted to determine experimentally the lipophilicity of the synthesized compounds from the RPTLC method as RM values. The method is considered to be a reliable, fast and convenient method for expressing lipophilicity. Moreover, many calculated methods were used in order to predict the logP value.
Reversed phase TLC (RP-TLC) was performed on silica gel plates impregnated with 5% (v/v) liquid paraffin in light petroleum ether. The mobile phase was a methanol/water mixture (70/30, v/v). The plates were developed in closed chromatography tanks saturated with the mobile phase at 24 °C. Spots were detected under UV light. Five individual measurements of Rf values were recorded and used for the determination of RM using the equation RM = log [(1/Rf) − 1]. (Table 3).

[4] = Inhibition of linoleic acid lipid peroxidation (AAPH)
Description: The water soluble 2,2′-azobis(2-amidinopropane) hydrochloride (AAPH) generates in vitro free radicals through spontaneous thermal decomposition. […] Overall, chalcones a, b, and c present anti-lipid peroxidation activity. […] The inhibiting activities for the rest b chalcones ranged from 15–44%. The intermediate ethers are moderate inhibitors. […] This might be correlated with the presence of the double C=C–COCH3 group. […] Both have a long ether chain in their structure.
In an aqueous solution spectrophotometrically at 234 nm the production of conjugated diene hydro peroxide by oxidation of sodium linoleate was monitored and recorded according to our previous published experimental conditions, using 10 µL of the 16 mM sodium linoleate solution added to the UV cuvette containing 930 μL of 0.05 M phosphate buffer, pH 7.4 pre-thermostated at 37 °C, under air by the addition of 50 μL of 40 mM AAPH solution, which was used as a free radical initiator. Ten microliters (10 μL) of the appropriate solutions of the tested compounds were added in the mixture, whereas same level of DMSO was used as a blank for the measurement of lipid oxidation. The rate of oxidation at 37 °C was monitored by recording the increase in absorption at 234 nm caused by conjugated diene hydro peroxides.

Row | Structure (SMILES) | RA% 100 μM 20 min [1] | RA% 100 μM 60 min [1] | % LOX Inhb. @ 100 μM (soybean lipoxygenase) [%] | IC50 (soybean lipoxygenase) [µM] | ABTS•+ Inhb. % @ 100 μM [2] | RM [3] | AAPH% @ 100 μM (anti-lipid peroxidation) [4] [%]
1 | CN(C)c1ccc(/C=C/C=C/C(=O)c2ccccc2O)cc1 [b3, (2E,4E)-5-(4-(dimethylamino)phenyl)-1-(2-hydroxyphenyl)penta-2,4-dien-1-one] | 72% | 15% | 100 | 57 | 96% | −0.66 | 100
2 | O=C(/C=C/C=C/c1ccccc1)c1ccccc1O [b7, (2E,4E)-1-(2-hydroxyphenyl)-5-phenylpenta-2,4-dien-1-one] | 13% | 0% | 29 | – | 5% | −0.85 | 29
3 | CC(/C=C/C(=O)c1ccccc1O)=C\c1ccccc1 [b8, (2E,4E)-1-(2-hydroxyphenyl)-4-methyl-5-phenylpenta-2,4-dien-1-one] | 17% | 3% | 25 | – | 12% | −0.79 | 25
4 | O=C(/C=C/C(Br)=C\c1ccccc1)c1ccccc1O [b9, (2E,4E)-4-bromo-1-(2-hydroxyphenyl)-5-phenylpenta-2,4-dien-1-one] | 20% | 8% | 16 | – | No | −0.37 | 17
5 | O=C(/C=C/C=C/c1ccc([N+](=O)[O-])cc1)c1ccccc1O [b11, (2E,4E)-1-(2-hydroxyphenyl)-5-(4-nitrophenyl) penta-2,4-dien-1-one] | 4% | 2% | 31 | – | No | −0.91 | 31
6 | O=C(/C=C/c1ccccc1)c1ccccc1O [b13, (E)-1-(2-hydroxyphenyl)-3-phenylprop-2-en-1-one] | 10% | 0% | 14 | – | No | 0.43 | 15
7 | O=C(/C=C/c1ccccc1)c1ccc(OCCCOc2ccc(C(=O)/C=C/c3ccccc3)cc2)cc1 [c13, (2E,2′E)-1,1′-((propane-1,3-diylbis(oxy))bis(4,1-phenylene))bis(3-phenylprop-2-en-1-one)] | No | no | 76 | 65 | No | 0.34 | 71
8 | CN(C)c1ccc(/C=C/C=C/C(=O)c2ccc(OCCCCOc3ccc(C(=O)/C=C/C=C/c4ccc(N(C)C)cc4)cc3)cc2)cc1 [eiii, (2E,2′E,4E,4′E)-1,1′-((butane-1,4-diylbis(oxy))bis(4,1-phenylene))bis(5-(4-(dimethylamino)phenyl)penta-2,4-dien-1-one)] | No | no | 27 | – | No | −0.07 | 47
